A short description of the series: recombinant barcode read abundance after kanamycin selection (control-corrected) (log10(CPM+1)); higher = more efficient recombination; sequences stand for … in AGTGCAGAGAAAATCGGCCAGTTTTCTCTGCCTGCAGTCCGCATGCCGT…AGATTTATGCAGCGGACTGCCTTTCTCCCAAAGTGATAAACCGGACAGTATCATGGACCGGTTTTCCCGGTAATCCGTATTTGCAAGGTTGGTTTCACT; site = the 11-nt target. In a few lines:
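Recombination efficiency draws on barcodes counted at recombinant junctions in a pooled E. coli screen of targets paired with IS621 bridge RNA target-binding loops. The counts were converted to counts per million, averaged and corrected against the chloramphenicol/ampicillin LB agar control, then reported as log10(CPM+1). Selection plates held chloramphenicol/ampicillin/kanamycin with 0.1 mM IPTG, with two replicates per condition.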
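Also: IS621 recombinase and bridge RNA in Escherichia coli cells.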

Turning to “TAGTACCCTTGGGTTCTAACCTGTTGCTG (site TAGTAACCTAA)”, the “recombinant barcode read abundance (log10)” value is 0.434.

Consider “TAGTACCCTTGGGTTCTAACCTGTTGCTG (site TAGTACCCTCA)”, for which the “recombinant barcode read abundance (log10)” value worked out at 1.92. With “TAGTAGTCTTGGGTTCTAACCTGTTGCGT (site TAGTAGTCTAA)”, the “recombinant barcode read abundance (log10)” value is 0.509. In the case of “TAGTAGTCTTGGGTTCTAACCTGTTGCGT (site TAGTAGTCTAC)”, the “recombinant barcode read abundance (log10)” value stood at 2.79. For the sequence “TAGTAGTCTTGGGTTCTAACCTGTTGCGT (site TAGTAGTCTAG)”, the “recombinant barcode read abundance (log10)” value is 0.729. Consider “TAGTAGTCTTGGGTTCTAACCTGTTGCGT (site TAGTAGTCTAT)”, for which the “recombinant barcode read abundance (log10)” value was determined as 2.34. On to “TAGTCATCTTGGGTTCTAACCTGTTGCTC (site TAGACATCTGA)”, for which the “recombinant barcode read abundance (log10)” value was determined as 0.0065. Next, “TAGTCATCTTGGGTTCTAACCTGTTGCTC (site TAGCCATCTGA)”: 0.252; “TAGTCATCTTGGGTTCTAACCTGTTGCTC (site TAGGCATCTGA)”: 0.243. Next, “TAGTCATCTTGGGTTCTAACCTGTTGCTC (site TAGTCATCTGA)”: 1.41; “TAGTCCACTTGGGTTCTAACCTGTTGCGC (site CTCAAAGCTCG)”: 0.0907. For the sequence “TAGTCCACTTGGGTTCTAACCTGTTGCGC (site TAGTCCACTGC)”, the “recombinant barcode read abundance (log10)” value came to 1.98. For the sequence “TAGTCCGCTTGGGTTCTAACCTGTTGCGG (site GAGTTCGCTCC)”, the “recombinant barcode read abundance (log10)” value was 0.00991. Consider “TAGTCCGCTTGGGTTCTAACCTGTTGCGG (site TAGTCCGCTCC)”, for which the “recombinant barcode read abundance (log10)” value is 0.0626. To “TAGTCCTCTTGGGTTCTAACCTGTTGCTT (site TAGTCCTCTAA)” belongs 1.22; to “TAGTCCTCTTGGGTTCTAACCTGTTGCTT (site TAGTCCTCTCA)”, 0.173; to “TAGTCCTCTTGGGTTCTAACCTGTTGCTT (site TAGTCCTCTGA)”, 0.13. As for “TAGTCCTCTTGGGTTCTAACCTGTTGCTT (site TAGTCCTCTTA)”, the “recombinant barcode read abundance (log10)” value was 0.0542. Next, “TAGTCGACTTGGGTTCTAACCTGTTGCTT (site TAGACGACTAA)”: 0.652.

Turning to “TAGTCGACTTGGGTTCTAACCTGTTGCTT (site TAGCCGACTAA)”, the “recombinant barcode read abundance (log10)” value was 0.307. Take “TAGTCGACTTGGGTTCTAACCTGTTGCTT (site TAGGCGACTAA)”: the “recombinant barcode read abundance (log10)” value stood at 0.0688. As for “TAGTCGACTTGGGTTCTAACCTGTTGCTT (site TAGTCGACTAA)”, the “recombinant barcode read abundance (log10)” value was determined as 0.103. For “TAGTCGTCTTGGGTTCTAACCTGTTGCCT (site TAGTCGTCTAA)”, the “recombinant barcode read abundance (log10)” value is 0.238.

As for “TAGTCGTCTTGGGTTCTAACCTGTTGCCT (site TAGTCGTCTAG)”, the “recombinant barcode read abundance (log10)” value stood at 1.3.

As for “TAGTCGTCTTGGGTTCTAACCTGTTGCTA (site TAGTCGTCTTA)”, the “recombinant barcode read abundance (log10)” value amounted to 0.505.

Regarding “TAGTCGTCTTGGGTTCTAACCTGTTGCTA (site TATTTGTCTTA)”, the “recombinant barcode read abundance (log10)” value was determined as 0.438. In the case of “TAGTCTCCTTGGGTTCTAACCTGTTGCGT (site TAGTATCCTAC)”, the “recombinant barcode read abundance (log10)” value was 0.227. Take “TAGTCTCCTTGGGTTCTAACCTGTTGCGT (site TAGTCTCCTAC)”: the “recombinant barcode read abundance (log10)” value is 0.314. To “TAGTCTCCTTGGGTTCTAACCTGTTGCGT (site TAGTGTCCTAC)” belongs 0.0837; to “TAGTCTCCTTGGGTTCTAACCTGTTGCGT (site TAGTTTCCTAC)”, 0.135. Next, “TAGTGAGCTTGGGTTCTAACCTGTTGCCG (site GCCCATCCTTA)”: 0.065; “TAGTGAGCTTGGGTTCTAACCTGTTGCCG (site TAGTGAGCTCG)”: 1.44; “TAGTGAGCTTGGGTTCTAACCTGTTGCCT (site TAGTGAGCTAG)”: 1.37.

In the case of “TAGTGAGCTTGGGTTCTAACCTGTTGCCT (site TCGTGAGCTAG)”, the “recombinant barcode read abundance (log10)” value came to 0.134. In the case of “TAGTGCTCTTGGGTTCTAACCTGTTGCCC (site TAGTGCTCTAG)”, the “recombinant barcode read abundance (log10)” value was 0.675. To “TAGTGCTCTTGGGTTCTAACCTGTTGCCC (site TAGTGCTCTCG)” belongs 0.576. For the sequence “TAGTGCTCTTGGGTTCTAACCTGTTGCCC (site TAGTGCTCTGG)”, the “recombinant barcode read abundance (log10)” value was 1.37. On to “TAGTGCTCTTGGGTTCTAACCTGTTGCCC (site TAGTGCTCTTG)”, for which the “recombinant barcode read abundance (log10)” value stood at 0.116. “TAGTGTCCTTGGGTTCTAACCTGTTGCCT (site TAGTGTACTAG)”: the “recombinant barcode read abundance (log10)” value stood at 0.126.

For the sequence “TAGTGTCCTTGGGTTCTAACCTGTTGCCT (site TAGTGTCCTAG)”, the “recombinant barcode read abundance (log10)” value was 1.11. For the sequence “TAGTGTCCTTGGGTTCTAACCTGTTGCCT (site TAGTGTGCTAG)”, the “recombinant barcode read abundance (log10)” value came to 0.521. With “TAGTGTCCTTGGGTTCTAACCTGTTGCCT (site TAGTGTTCTAG)”, the “recombinant barcode read abundance (log10)” value was determined as 0.405. Consider “TAGTGTCCTTGGGTTCTAACCTGTTGCGT (site TAGTATCCTAC)”, for which the “recombinant barcode read abundance (log10)” value came out at 0.309.

Regarding “TAGTGTCCTTGGGTTCTAACCTGTTGCGT (site TAGTCTCCTAC)”, the “recombinant barcode read abundance (log10)” value came out at 0.104.

Regarding “TAGTGTCCTTGGGTTCTAACCTGTTGCGT (site TAGTGTCCTAC)”, the “recombinant barcode read abundance (log10)” value worked out at 1.86. Regarding “TAGTGTCCTTGGGTTCTAACCTGTTGCGT (site TAGTTTCCTAC)”, the “recombinant barcode read abundance (log10)” value worked out at 0.0286.

Turning to “TAGTGTGCTTGGGTTCTAACCTGTTGCCT (site TAGTGTACTAG)”, the “recombinant barcode read abundance (log10)” value worked out at 0.514. Consider “TAGTGTGCTTGGGTTCTAACCTGTTGCCT (site TAGTGTCCTAG)”, for which the “recombinant barcode read abundance (log10)” value came to 0.137. Next, “TAGTGTGCTTGGGTTCTAACCTGTTGCCT (site TAGTGTGCTAG)”: 1.06. As for “TAGTGTGCTTGGGTTCTAACCTGTTGCCT (site TAGTGTTCTAG)”, the “recombinant barcode read abundance (log10)” value is 0.0139. For “TAGTGTTCTTGGGTTCTAACCTGTTGCCT (site TAGTGTACTAG)”, the “recombinant barcode read abundance (log10)” value is 0.104. Next, “TAGTGTTCTTGGGTTCTAACCTGTTGCCT (site TAGTGTCCTAG)”: 0.181; “TAGTGTTCTTGGGTTCTAACCTGTTGCCT (site TAGTGTGCTAG)”: 0.106. For “TAGTGTTCTTGGGTTCTAACCTGTTGCCT (site TAGTGTTCTAG)”, the “recombinant barcode read abundance (log10)” value stood at 0.57.

“TAGTTAGCTTGGGTTCTAACCTGTTGCCT (site TAGTTAGCTAG)”: the “recombinant barcode read abundance (log10)” value is 0.756. Consider “TAGTTAGCTTGGGTTCTAACCTGTTGCCT (site TAGTTAGCTCG)”, for which the “recombinant barcode read abundance (log10)” value is 0.217. “TAGTTAGCTTGGGTTCTAACCTGTTGCCT (site TAGTTAGCTGG)”: the “recombinant barcode read abundance (log10)” value amounted to 0.251. On to “TAGTTAGCTTGGGTTCTAACCTGTTGCCT (site TAGTTAGCTTG)”, for which the “recombinant barcode read abundance (log10)” value amounted to 0.11. With “TAGTTCACTTGGGTTCTAACCTGTTGCCA (site TAGTTAACTTG)”, the “recombinant barcode read abundance (log10)” value stood at 0.273.

Consider “TAGTTCACTTGGGTTCTAACCTGTTGCCA (site TAGTTCACTTG)”, for which the “recombinant barcode read abundance (log10)” value is 0.0767. In the case of “TAGTTCACTTGGGTTCTAACCTGTTGCCA (site TAGTTGACTTG)”, the “recombinant barcode read abundance (log10)” value was determined as 0.0545. With “TAGTTCACTTGGGTTCTAACCTGTTGCCA (site TAGTTTACTTG)”, the “recombinant barcode read abundance (log10)” value was found to be 0.0834. Consider “TAGTTGTCTTGGGTTCTAACCTGTTGCTT (site CGACGCACTCC)”, for which the “recombinant barcode read abundance (log10)” value came to 0.301.

As for “TAGTTGTCTTGGGTTCTAACCTGTTGCTT (site TAGTTGTCTAA)”, the “recombinant barcode read abundance (log10)” value amounted to 0.569.

For the sequence “TAGTTTACTTGGGTTCTAACCTGTTGCTA (site GGTCAGTCTCC)”, the “recombinant barcode read abundance (log10)” value worked out at 0.0822. As for “TAGTTTACTTGGGTTCTAACCTGTTGCTA (site TAGTTTACTTA)”, the “recombinant barcode read abundance (log10)” value was found to be 0.0536. Turning to “TAGTTTGCTTGGGTTCTAACCTGTTGCCG (site ACCGACCCTAT)”, the “recombinant barcode read abundance (log10)” value was 0.00726. With “TAGTTTGCTTGGGTTCTAACCTGTTGCCG (site TAGTTTGCTCG)”, the “recombinant barcode read abundance (log10)” value was 0.743. For “TATAAGTCTTGGGTTCTAACCTGTTGCCT (site CGTAAGTCTAG)”, the “recombinant barcode read abundance (log10)” value came out at 0.0475.

Regarding “TATAAGTCTTGGGTTCTAACCTGTTGCCT (site TATAAGTCTAG)”, the “recombinant barcode read abundance (log10)” value was found to be 0.0571.

For the sequence “TATAATACTTGGGTTCTAACCTGTTGCGG (site TAGAATACTCC)”, the “recombinant barcode read abundance (log10)” value is 0.156. On to “TATAATACTTGGGTTCTAACCTGTTGCGG (site TATAATACTCC)”, for which the “recombinant barcode read abundance (log10)” value is 0.659. Consider “TATAGAGCTTGGGTTCTAACCTGTTGCGG (site TAAAGAGCTCC)”, for which the “recombinant barcode read abundance (log10)” value was 0.358. Next, “TATAGAGCTTGGGTTCTAACCTGTTGCGG (site TACAGAGCTCC)”: 0.297; “TATAGAGCTTGGGTTCTAACCTGTTGCGG (site TAGAGAGCTCC)”: 0.488; “TATAGAGCTTGGGTTCTAACCTGTTGCGG (site TATAGAGCTCC)”: 2.21. For “TATATAACTTGGGTTCTAACCTGTTGCCT (site TATAAAACTAG)”, the “recombinant barcode read abundance (log10)” value was found to be 0.137.

Source of the values: the supplement of paper PMC11208160.
